The results in this text go back to ChEMBL document CHEMBL3259599, “Novel colchicine-site binders with a cyclohexanedione scaffold identified through a ligand-based virtual screening approach” (J Med Chem, 2014).

The source made the active and inactive calls. The rule behind the calls is not given here. Where only a bound is given, the exact number is not on record here.

The target in data set [1] is T1, Tubulin (Homo sapiens) (UniProt P68371+Q9H4B7+P0DPH7+P68366+Q13509+Q71U36+P04350+Q3ZCM7+P07437+P68363+Q9BQE3+Q6PEY2+Q13885+Q9BVA1+Q9BUF5).
Description: Binding affinity to tubulin (unknown origin)
Data set [2] can be described thus: Antiproliferative activity against HMEC1 after 4 days by coulter counter analysis. The format is functional. The conditions noted are these: Homo sapiens, HMEC-1, 96 h.
The nature of data set [3]: Antiproliferative activity against MBEC after 3 days by coulter counter analysis. The format is functional, Mus musculus.
Data set [4] in a line: Antiproliferative activity against BAEC after 3 days by coulter counter analysis. The format is functional. Conditions: Bos taurus, 72 h.
A further data set has as its system L1210. In words: Antiproliferative activity against mouse L1210 cells after 48 to 96 hrs by coulter counter analysis. The format is functional, cell-based.
A further data set has as its system CCRF-CEM. Kind of data set: Antiproliferative activity against human CEM cells after 48 to 96 hrs by coulter counter analysis. The data set is classed as functional, cell-based.
The test system of a further data set is HeLa. In words: Antiproliferative activity against human HeLa cells after 4 days by coulter counter analysis. The format is functional, cell-based. The conditions noted are these: 96 h.
Data set [5] can be described thus: Cell cycle arrest in HMEC1 cells assessed as accumulation at subG1 phase at 1 uM after 24 hrs by propidium iodide staining-based flow cytometric analysis. The data set is classed as functional. Conditions: Homo sapiens, HMEC-1. On the technique in general: In flow cytometry, cells or beads pass a laser one at a time.
A short description of data set [6]: Cell cycle arrest in HMEC1 cells assessed as accumulation at G2/M phase at 1 uM after 24 hrs by propidium iodide staining-based flow cytometric analysis. Conditions: Homo sapiens, HMEC-1. The data set is classed as functional.
Data set [7] deals with HMEC-1. Kind of data set: Induction of apoptosis in HMEC1 at 0.3 uM after 24 hrs by propidium iodide staining-based flow cytometric analysis. The format is functional. The conditions noted are these: Homo sapiens.
In data set [8] the test system is MDA-MB-231. Kind of data set: Competitive binding affinity to beta-tubulin in human MDA-MB-231 cells assessed as inhibition of protein-N/N'-ethylene-bis(iodoacetamide) adduct formation at 10 uM preincubated for 16 hrs followed by N/N'-ethylene-bis(iodoacetamide) formation measured after 1.5 hrs by Western blot analysis. The data set is classed as cell-based. A general note: A western blot detects proteins with antibodies after separation by electrophoresis.

The target of data set [9] is T2, Tubulin (Bos taurus) (UniProt Q6B856+Q862L2+Q862F3). In words: Displacement of MTC from calf brain tubulin colchicine binding site at 20 uM by fluorescence spectroscopic analysis.
Data set [10] has as its target T2, Tubulin (Bos taurus). In words: Displacement of R-PT from calf brain tubulin at 25 degC by fluorescence spectroscopic analysis.
The target of data set [11] is T1, Tubulin (Homo sapiens). Kind of data set: Binding affinity to tubulin in human MDA-MB-231 cells assessed as inhibition of mitotic spindle formation at 1 uM after 8 hrs by DAPI staining-based fluorescence microscopic analysis. The data set is classed as cell-based.
Data set [12] relates to HMEC-1. In words: Antivascular activity in HMEC1 cells assessed as destruction of cord like structure at 3 uM after 90 mins by matrigel assay. The data set is classed as functional, cell-based. Conditions: Homo sapiens.
For data set [13], the system named is MDA-MB-231. Kind of data set: Antimigratory activity against human MDA-MB-231 cells at 0.4 uM after 17 hrs by Transwell assay. The data set is classed as functional, cell-based.
Data set [14] deals with MDA-MB-231. Kind of data set: Antiinvasive activity against human MDA-MB-231 cells at 0.4 uM after 17 hrs by Transwell assay. The format is functional, cell-based.
For data set [15], the system named is MDA-MB-231. Kind of data set: Antiproliferative activity against human MDA-MB-231 cells at 0.4 uM after 17 hrs. The data set is classed as functional, cell-based.
Data set [16] is described as follows: (§1) Metabolic stability in 10% human serum assessed as compound remaining at 100 uM measured after 3 hrs by HPLC analysis. The format is ADME. Conditions: 10% human serum, read-out: Stability.
Data set [17] can be described thus: (§2) Metabolic stability in 50% mouse liver extract assessed as compound remaining at 100 uM measured after 3 hrs by HPLC analysis. Conditions: 50% mouse liver extract, read-out: Stability. The format is ADME, tissue-based.
Data set [18] deals with MDA-MB-231. In words: Antimigratory activity against human MDA-MB-231 cells at 2 to 10 uM after 17 hrs by Transwell assay. The format is functional, cell-based.
The subject of data set [19] is MDA-MB-231. In words: Antiinvasive activity against human MDA-MB-231 cells at 2 to 10 uM after 17 hrs by Transwell assay. The format is functional, cell-based.
In another data set the test system is Serum. Described as §1. The format is ADME. Conditions: serum, 3 h, 100 µM.
The next data set has as its system Liver. The description is as §2. The format is ADME, tissue-based. Conditions: 3 h, 100 µM.
The species named for the next data set is Rattus norvegicus. In words: Binding affinity to rat brain tubulin at 37 degC after 1 to 2 mins by DEAE cellulose filter paper method.
Data set [20] in a line: Cell cycle arrest in HMEC1 cells assessed as accumulation at subG1 phase at 0.03 uM after 24 hrs by propidium iodide staining-based flow cytometric analysis. The format is functional. The conditions noted are these: Homo sapiens, HMEC-1.
Data set [21] is described as follows: Cell cycle arrest in HMEC1 cells assessed as accumulation at G2/M phase at 0.03 uM after 24 hrs by propidium iodide staining-based flow cytometric analysis. The conditions noted are these: Homo sapiens, HMEC-1. The format is functional.
In data set [22] the test system is MDA-MB-231. Kind of data set: Competitive binding affinity to beta-tubulin in human MDA-MB-231 cells assessed as inhibition of protein-N/N'-ethylene-bis(iodoacetamide) adduct formation at 0.5 uM preincubated for 16 hrs followed by N/N'-ethylene-bis(iodoacetamide) formation measured after 1.5 hrs by Western blot analysis. The format is cell-based.
Data set [23] concerns HMEC-1. Kind of data set: Antivascular activity in HMEC1 cells assessed as destruction of cord like structure at 0.3 to 1 uM after 90 mins by matrigel assay. The data set is classed as functional, cell-based. The conditions noted are these: Homo sapiens.
In data set [24] the test system is MDA-MB-231. In words: Antimigratory activity against human MDA-MB-231 cells at 0.08 uM after 17 hrs by Transwell assay. The data set is classed as functional, cell-based.
In data set [25] the test system is MDA-MB-231. Kind of data set: Antiinvasive activity against human MDA-MB-231 cells at 0.08 uM after 17 hrs by Transwell assay. The format is functional, cell-based.
The test system of data set [26] is MDA-MB-231. In words: Antiproliferative activity against human MDA-MB-231 cells at 0.08 uM after 17 hrs. The data set is classed as functional, cell-based.

On to `COC(=O)Nc1nc2cc(C(=O)c3cccs3)ccc2[nH]1`, for which, at Tubulin (Homo sapiens) [1], the Ka came to 4 ×10⁵ /M.
In the case of `COc1ccccc1NC(C)=C1C(=O)CC(c2ccccc2)CC1=O` (stereo not drawn), the IC50 (usually the concentration at which inhibition is half-maximal) in data set [2] was 0.09 µM; in [3], 0.12 µM; in [4] it was 0.09 µM; in the data set on L1210 it was 0.16 µM; in the data set with CCRF-CEM, 0.18 µM; in the data set with HeLa it was 0.18 µM. In addition, the outcome (in data set [5]; in data set [6]; in the data set on HMEC-1 [7]; with HMEC-1 [12]; in the data set with MDA-MB-231 [15]) was Active. Moreover, the inhibition entry in the data set with MDA-MB-231 [8], on Tubulin (Bos taurus) [9], at Tubulin (Homo sapiens) [11], in the data set with MDA-MB-231 [13] and in the data set on MDA-MB-231 [14] was “Active” each time. This compound also returned a Ka on Tubulin (Bos taurus) [10] of 9.6 ×10⁶ /M. The figures for the remaining at 3 h, 100 µM in [16] and in data set [17] were 70% and more than 90%, respectively.
As to `CC(Nc1ccccc1C)=C1C(=O)CC(c2ccccc2)CC1=O` (stereo not drawn), the IC50 in data set [2] came out at 0.26 µM; in data set [3] it was 0.32 µM; in data set [4], 0.17 µM; in the data set with L1210, 0.3 µM; in the data set with CCRF-CEM it was 0.68 µM; in the data set on HeLa it was 0.48 µM. Moreover, the outcome in data set [5] and in [6] was Active.
With `CCC(Nc1ccccc1O)=C1C(=O)CC(c2ccccc2)CC1=O` (stereo not drawn), the IC50 was determined as 22 µM in [2]; 13 µM in data set [3]; 35 µM in data set [4]; 13 µM in the data set with L1210; 15 µM in the data set with CCRF-CEM; 11 µM in the data set with HeLa. Also, the inhibition entry at Tubulin (Bos taurus) [9] is “Active”. Further, the inhibition entry in the data set with MDA-MB-231 [18] and in the data set on MDA-MB-231 [19] was “inactive” in each case. Besides, the Stability entry in the data set on Serum and with Liver was “Unstable” throughout.
Regarding `COc1cccc(C2CC(=O)C(=C(C)Nc3ccccc3OC)C(=O)C2)c1` (stereo not drawn), the IC50 in [2] was 0.3 µM; in [3], 0.41 µM; in data set [4], 0.23 µM; in the data set with L1210, 0.21 µM; in the data set with CCRF-CEM it was 0.24 µM; in the data set with HeLa, 0.69 µM. Also, the inhibition entry on Tubulin (Bos taurus) [9] was “Active”. The compound also displayed a Ka at Tubulin (Bos taurus) [10] of 7.5 ×10⁶ /M.
`CCC(Nc1ccccc1OC)=C1C(=O)CC(c2ccccc2)CC1=O` (stereo not drawn): the IC50 in data set [2] amounted to 1.4 µM; in data set [3], 1.4 µM; in data set [4], 1.2 µM; with L1210 it was 1.5 µM; in the data set with CCRF-CEM, 2.3 µM; in the data set with HeLa, 4.3 µM. In addition, at Tubulin (Bos taurus) [9], the inhibition entry is “Active”. Further, the Ka at Tubulin (Bos taurus) [10] came out at 7.1 ×10⁶ /M.
In the data set listed under Rattus norvegicus, `COc1cc([C@@H]2c3cc4c(cc3[C@H](O)[C@H]3COC(=O)[C@H]23)OCO4)cc(OC)c1OC` registered a Ka of 1.8 ×10⁶ /M.
As to `COc1ccccc1NC(C)=C1C(=O)CC(C2CCCCC2)CC1=O` (stereo not drawn), the IC50 in [2] was 12 µM; in [3], 21 µM; in data set [4], 12 µM; in the data set with L1210, more than 8 µM; in the data set with CCRF-CEM, 15 µM; in the data set on HeLa it was 11 µM.
Turning to `CCC(Nc1ccc(OC)c(OC)c1)=C1C(=O)CC(c2ccccc2)CC1=O` (stereo not drawn), the IC50 (in [2]; in [3]; in [4]; in the data set on L1210; with CCRF-CEM; in the data set with HeLa) was more than 100 µM each time.
For the compound `CCCC(Nc1ccccc1OC)=C1C(=O)CC(c2ccccc2)CC1=O` (stereo not drawn), the IC50 amounted to 31 µM in [2]; 27 µM in [3]; 16 µM in [4]; 36 µM in the data set on L1210; 41 µM in the data set with CCRF-CEM; 59 µM with HeLa.
As to `CC(Nc1ccccc1C(F)(F)F)=C1C(=O)CC(c2ccccc2)CC1=O` (stereo not drawn), the IC50 turned out to be 7.7 µM in data set [2]; 8.7 µM in data set [3]; 8.1 µM in data set [4]; 14 µM in the data set on L1210; 18 µM in the data set on CCRF-CEM; 32 µM in the data set with HeLa.
Consider `COc1cc2c(c(OC)c1OC)-c1ccc(OC)c(=O)cc1[C@@H](NC(C)=O)CC2` [COLCHICINE], for which the IC50 worked out at 0.031 µM in [3], 0.0069 µM in data set [4] and 0.01 µM in the data set on L1210. In addition, the outcome (in data set [20]; in [21]; with HMEC-1 [23]; in the data set on MDA-MB-231 [26]) was Active. Moreover, the inhibition result in the data set with MDA-MB-231 [22], with MDA-MB-231 [24] and in the data set on MDA-MB-231 [25] was “Active” each time.
In the case of `COc1ccccc1NC(C)=C1C(=O)CC(c2ccc(Cl)cc2)CC1=O` (stereo not drawn), the IC50 in data set [2] is 55 µM; in [3], 46 µM; in data set [4] it was 42 µM; in the data set with L1210 it was 22 µM; in the data set on CCRF-CEM, 28 µM; in the data set with HeLa, 58 µM.
As to `CCC(Nc1ccc(OC)cc1)=C1C(=O)CC(c2ccccc2)CC1=O` (stereo not drawn), the IC50 in data set [2] was not below 100 µM; in data set [3], 57 µM; in data set [4] it was not below 100 µM; in the data set with L1210 it was 58 µM; in the data set with CCRF-CEM, 67 µM; in the data set on HeLa, not below 100 µM.
As to `CCC(Nc1ccccc1C)=C1C(=O)CC(c2ccccc2)CC1=O` (stereo not drawn), the IC50 is 2.1 µM in data set [2]; 2.8 µM in data set [3]; 2.2 µM in data set [4]; 6.9 µM in the data set with L1210; 6.3 µM in the data set on CCRF-CEM; 9.2 µM with HeLa.
